The values below are quoted from earlier work in patent publication US20090148532A1, “Preparation of controlled release skeletal muscle relaxant dosage forms” (priority 2007, published 2009).

The conditions of this data set: after oral administration.

Turning to `CN(C)CCC=C1c2ccccc2C=Cc2ccccc21` [Cyclobenzaprine], the Elimination half-life result is given as “one to three”.
